In US20050191282A1, “Method of cryopreserving pancreatic islet cells” (priority 2004, published 2005):

What was measured:
[1] = system: isolated rat islets; test: Glucose-stimulated insulin secretion by perifused islets after cryopreservation; assay type: cell-based
Procedure: FIG. 2 graphs glucose stimulation of insulin secretion in islets cryopreserved with different cryoprotectants. After one week of cryopreservation, islets were thawed and cultured overnight before being tested for response to 16.7 mM glucose stimulation. The 16.7 mM glucose stimulated insulin secretion was assessed by normalizing data as percent basal insulin secretion for each group of islets. Data represent mean±SEM.
The present invention is based on the hypothesis that the low molecular weight (MW) compounds, DMSO and glycerol, permeate the cell and interact hydrophobically with intracellular proteins thereby perturbing the cyto-skeletal architecture of frozen cells, and diminishing islet cell integrity and function. […] Using a programmable temperature controller, samples of pre-counted islets were then frozen under liquid nitrogen, in the presence of either 2M DMSO (MW=0.078 kD), 3M glycerol (MW=0.092 kD), 5% polyethylene glycol (PEG, MW=20 kD), or 10% polyvinylpyrrolidone (PVP, MW=40 kD), and stored at −80° C. for 1 week. Following thawing, intact islet recovery was determined by islet counting after Dithizone staining. Islet function was assessed by determination of glucose-stimulated insulin secretion in perifusion experiments with Krebs-Ringer bicarbonate buffer, pH 7.4, containing either basal (3.3 mM) or high (16.7 mM) glucose concentrations. […]

[2] = system: islets; settings: DMSO as cryoprotectant, compared to freshly isolated islets; cited from earlier work
[3] = system: isolated rat islets; test: Recovery of intact islets after cryopreservation and thawing (islet counting after Dithizone staining); assay type: cell-based; parameters: key: Severe = +++; Mild = +; settings: 2M DMSO, 3M glycerol, 5% PEG or 10% PVP
Procedure: The present invention is based on the hypothesis that the low molecular weight (MW) compounds, DMSO and glycerol, permeate the cell and interact hydrophobically with intracellular proteins thereby perturbing the cyto-skeletal architecture of frozen cells, and diminishing islet cell integrity and function. Isolated rat islets were cultured overnight (16-24 hr) at 37° C., in RPMI medium supplemented with 10% fetal calf serum and 1% mixture of Penicillin/Streptomycin. Using a programmable temperature controller, samples of pre-counted islets were then frozen under liquid nitrogen, in the presence of either 2M DMSO (MW=0.078 kD), 3M glycerol (MW=0.092 kD), 5% polyethylene glycol (PEG, MW=20 kD), or 10% polyvinylpyrrolidone (PVP, MW=40 kD), and stored at −80° C. for 1 week. Following thawing, intact islet recovery was determined by islet counting after Dithizone staining. Islet function was assessed by determination of glucose-stimulated insulin secretion in perifusion experiments with Krebs-Ringer bicarbonate buffer, pH 7.4, containing either basal (3.3 mM) or high (16.7 mM) glucose concentrations. After thawing samples of frozen islets, the mean±SEM % intact islet recovery was higher with PVP compared to DMSO (82±4.6 versus 62.7±3.1% respectively, p<0.005, n=9). […]

C[S+](C)[O-] [DMSO, Dimethylsulfoxide]
function of cryopreserved islets compared to freshly isolated islets [1]: impaired | loss in the number and function of islets after thawing [2]: 30-50% | Fragment (fragmentation of islets after thawing) [3]: +++

OCC(O)CO [GLY, glycerol]
function of cryopreserved islets compared to freshly isolated islets [1]: impaired | Fragment (fragmentation of islets after thawing) [3]: +++
